According to ChEMBL document CHEMBL1201862, “PubChem BioAssay data set” (2004):
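Five compound concentrations were applied to cells in 96-well plates for 48 hours; endpoints were derived by simple linear interpolation of the resulting dose-response curve. GI50 = concentration required for 50% inhibition of growth.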 Active and inactive are the calls of the source. Rule as the data show it: active = GI50 up to about 1.1 µM and inactive = higher.

What was measured:
Test in all cases: growth of human tumour cells (NCI), 48 h
COLO 205 = system: COLO 205
U-251 = system: U-251
EKVX = system: EKVX
HOP-92 = system: HOP-92
IGROV-1 = system: IGROV-1
SR = system: SR
LOX IMVI = system: LOX IMVI
786-0 = system: 786-0
PC-3 = system: PC-3
MCF7 = system: MCF7
OVCAR-4 = system: OVCAR-4
HT-29 = system: HT-29
UO-31 = system: UO-31
NCI-H522 = system: NCI-H522
NCI-H226 = system: NCI-H226
OVCAR-3 = system: OVCAR-3
NCI-H460 = system: NCI-H460
HCC 2998 = system: HCC 2998
MOLT-4 = system: MOLT-4
A549 = system: A549

Structure (SMILES) | GI50 (COLO 205) | GI50 (U-251) | GI50 (EKVX) | GI50 (HOP-92) | GI50 (IGROV-1) | GI50 (SR) | GI50 (LOX IMVI) | GI50 (786-0) | GI50 (PC-3) | GI50 (MCF7) | GI50 (OVCAR-4) | GI50 (HT-29) | GI50 (UO-31) | GI50 (NCI-H522) | GI50 (NCI-H226) | GI50 (OVCAR-3) | GI50 (NCI-H460) | GI50 (HCC 2998) | GI50 (MOLT-4) | GI50 (A549)
CC(=O)SC(C[N+](=O)[O-])c1ccccc1 (stereo not given) | 2.77 µM (inactive) | 3.79 µM (inactive) | 6.31 µM (inactive) | 12.6 µM (inactive) | 2.32 µM (inactive) | 2.22 µM (inactive) | 1.65 µM (inactive) | 3.95 µM (inactive) | 10.7 µM (inactive) | 1.74 µM (inactive) | 1.76 µM (inactive) | 2.06 µM (inactive) | 2.3 µM (inactive) | 16.4 µM (inactive) | 2.59 µM (inactive) | 5.37 µM (inactive) | 8.67 µM (inactive) | 4.75 µM (inactive) | 1.72 µM (inactive) | 3.82 µM (inactive)
O=C(/C=C/c1ccc(-c2ccccc2)cc1)NCc1ccc(C(=O)NCCc2ccccc2)cc1 | > 100 µM (inactive) | 65.3 µM (inactive) | > 100 µM (inactive) | 54.6 µM (inactive) | > 100 µM (inactive) | 44.8 µM (inactive) | 41.1 µM (inactive) | 59.2 µM (inactive) | > 100 µM (inactive) | 25.4 µM (inactive) | > 100 µM (inactive) | 28.1 µM (inactive) | > 100 µM (inactive) | > 100 µM (inactive) | > 100 µM (inactive) | > 100 µM (inactive) | > 100 µM (inactive) | > 100 µM (inactive) | 96.6 µM (inactive) | > 100 µM (inactive)
CC(Oc1ccccc1Cl)C(=O)NN1C(=O)CC(=O)NC1=S (stereo not given) | > 100 µM (inactive) | > 100 µM (inactive) | > 100 µM (inactive) | > 100 µM (inactive) | > 100 µM (inactive) | > 100 µM (inactive) | 61.9 µM (inactive) | > 100 µM (inactive) | > 100 µM (inactive) | > 100 µM (inactive) | > 100 µM (inactive) | > 100 µM (inactive) | 92.5 µM (inactive) | > 100 µM (inactive) | > 100 µM (inactive) | > 100 µM (inactive) | > 100 µM (inactive) | > 100 µM (inactive) | > 100 µM (inactive) | > 100 µM (inactive)
COc1ccc2c(c1)c1c3c(ccc4ncn2c43)N(CCN(C)C)CCN=1 | 0.356 µM (active) | 0.363 µM (active) | 0.586 µM (active) | 1.49 µM (inactive) | 1.31 µM (inactive) | 0.0302 µM (active) | 0.378 µM (active) | 0.19 µM (active) | 0.357 µM (active) | 0.288 µM (active) | 0.309 µM (active) | 0.135 µM (active) | 0.404 µM (active) | 0.19 µM (active) | 1.14 µM (inactive) | 0.538 µM (active) | 0.176 µM (active) | 0.422 µM (active) | 0.043 µM (active) | 0.359 µM (active)
O=C(O)CSSCC(=O)O | > 100 µM (inactive) | > 100 µM (inactive) | > 100 µM (inactive) | > 100 µM (inactive) | > 100 µM (inactive) | > 100 µM (inactive) | > 100 µM (inactive) | > 100 µM (inactive) | > 100 µM (inactive) | > 100 µM (inactive) | > 100 µM (inactive) | > 100 µM (inactive) | > 100 µM (inactive) | > 100 µM (inactive) | > 100 µM (inactive) | > 100 µM (inactive) | > 100 µM (inactive) | > 100 µM (inactive) | > 100 µM (inactive) | > 100 µM (inactive)
